Assay results as given in patent US20020177580A1, “Means and method for hormonal contraception” (priority 2001, published 2002).
Entries after “also recorded” stand apart in the source; their conditions may differ.

Columns and labels:
[1] = compared with commercially used synthetic progestogens; cited from earlier work
women = assay: Clinical study with dydrogesterone as progestogen-only preparation (Example 5); format: in vivo, human; conditions: 20 mg dydrogesterone once a day, uninterruptedly for 4 months
Text: Women participating in the study described in these examples are all selected on the basis that they are users of ‘high’ dose monophasic ethinyl estradiol-containing combined oral contraceptives. The reasons for applying this selection criterion is that there is a dose-relationship between follicular development and ethinyl estradiol whether given alone or in combination with a progestogen, i.e. less follicular development in the presence of the higher dose. Participation of the females involved in the study starts at a moment of (almost) complete suppression of follicular development. This condition is not met if a female has her first day of bleeding in a natural cycle, after a tablet-free interval, or immediately after a low-dose combined oral contraceptive.
A clinical study with dydrogesterone as a progestogen-only preparation is conducted in 8 women who were selected on the basis of the criteria mentioned in Example 1. The 8 women receive a 20 mg dosage of dydrogesterone once a day, uninterruptedly during a period of 4 months.

[2] = hormone replacement therapy with 17beta-estradiol dydrogesterone (Grisar et al., 1999); cited from earlier work
ovulation = conditions: humans; reported by Claassen et al., Acta Endocrinologica (1967); cited from earlier work

In the case of `CC(=O)[C@H]1CC[C@H]2[C@@H]3C=CC4=CC(=O)CC[C@@]4(C)[C@@H]3CC[C@]12C` [dydrogesterone, 9β,10α-pregna-4,6-diene-3,20-dione], the “estrogenic, glucocorticoid, anabolic or androgenic properties” value [1] is listed as “does not exhibit estrogenic, glucocorticoid, anabolic or androgenic properties”, the irregular bleeding (women) is listed as “some unpredictable irregular bleeding” and the menses flow (women) is listed as “reduction of the usual menses flow”. For the same compound, the ovulation inhibition (women) was “Ovulation is inhibited”, the “adverse effects on blood pressure” value [2] was “no adverse effects on blood pressure” and the inhibition of ovulation (ovulation) was “cannot be used to inhibit ovulation; also recorded: does not inhibit ovulation in humans”.
